Measured values reported in patent US11701371B2, “ENPP1 inhibitors and their use for the treatment of cancer” (THE BOARD OF TRUSTEES OF THE LELAND STANFORD JUNIOR …, priority 2017, dated 2023).

Assays:
[1] = biological target: T1, purified recombinant mouse ENPP1 (Mus musculus (Mouse), UniProt P06802); assay: ENPP1 activity assay using TMP-pNP as a substrate; type: biochemical; conditions: TMP-pNP 2 μM, mouse ENPP1 0.5 nM, pH 7.5
Procedure: Selected compounds of Table 1, Table 2 and other derivatives were prepared and assessed in an ENPP1 activity assay using thymidine monophosphate paranitrophenol (TMP-pNP) as a substrate. Enzyme reactions were prepared with TMP-pNP (2 μM), 5-fold dilutions of ENPP1 inhibitor, and purified recombinant mouse ENPP1 (0.5 nM) in 100 mM Tris, 150 mM NaCl, 2 mM CaCl2, 200 μM ZnCl2, pH 7.5 at room temperature. Reaction progress was monitored by measuring absorbance at 400 nm of paranitrophenolate produced by the reaction for 20 minutes.

[2] = biological target: T1, purified recombinant mouse ENPP1; assay: ENPP1 enzyme activity assay using 32P cGAMP as a substrate; type: biochemical; conditions: 32P-cGAMP 5 μM, mouse ENPP1 20 nM, pH 7.5, 5 hours
4T1-luciferase tumor = 4T1-luciferase tumor model with IR, cGAMP and anti-CTLA-4: tumor volume and survival; type: in vivo, mouse; conditions: single agent intratumoral on day 2, 4 and 7 after 20 Gy IR

T1 sequence (P06802 whole entry): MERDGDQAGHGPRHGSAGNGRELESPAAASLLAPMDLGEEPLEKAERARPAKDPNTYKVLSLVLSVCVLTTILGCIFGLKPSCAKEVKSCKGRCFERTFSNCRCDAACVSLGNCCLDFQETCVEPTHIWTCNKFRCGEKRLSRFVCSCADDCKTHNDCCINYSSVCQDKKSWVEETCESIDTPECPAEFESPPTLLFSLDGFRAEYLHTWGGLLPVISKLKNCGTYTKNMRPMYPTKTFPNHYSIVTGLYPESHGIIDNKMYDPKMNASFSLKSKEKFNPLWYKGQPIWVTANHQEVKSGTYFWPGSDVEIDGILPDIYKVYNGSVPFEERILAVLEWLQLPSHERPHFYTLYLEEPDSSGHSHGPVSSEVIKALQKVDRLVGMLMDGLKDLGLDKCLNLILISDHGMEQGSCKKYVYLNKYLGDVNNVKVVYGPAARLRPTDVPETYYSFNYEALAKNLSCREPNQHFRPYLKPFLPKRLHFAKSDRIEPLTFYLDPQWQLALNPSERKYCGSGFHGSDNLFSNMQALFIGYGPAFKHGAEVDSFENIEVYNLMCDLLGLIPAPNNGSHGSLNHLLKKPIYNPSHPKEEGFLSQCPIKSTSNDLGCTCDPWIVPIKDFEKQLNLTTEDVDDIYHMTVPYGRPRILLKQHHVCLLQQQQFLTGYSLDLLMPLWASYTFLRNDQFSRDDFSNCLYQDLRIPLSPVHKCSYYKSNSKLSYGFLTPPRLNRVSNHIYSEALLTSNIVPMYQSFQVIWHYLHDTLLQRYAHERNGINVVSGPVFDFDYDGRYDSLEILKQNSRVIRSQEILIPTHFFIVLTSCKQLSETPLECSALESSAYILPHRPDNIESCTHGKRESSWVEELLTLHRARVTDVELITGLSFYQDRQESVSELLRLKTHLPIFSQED

Compound: O=P(O)(O)CCC1CCN(c2ncnc3nc[nH]c23)CC1 [Compound 68]
- IC50 [1]: 0.5 to 5 µM

Compound: COc1ccc2c(N3CCC(CCP(=O)(O)O)CC3)nc(C)nc2c1 [Compound 12]
- IC50 [2]: 0.5 to 5 µM

Compound: Nc1nc2c(ncn2[C@@H]2O[C@@H]3COP(=O)(O)O[C@H]4[C@@H](O)[C@H](n5cnc6c(N)ncnc65)O[C@@H]4COP(=O)(O)O[C@@H]2[C@@H]3O)c(=O)[nH]1 [cGAMP, cyclic guanosine monophosphate-adenosine monophosphate]
- tumor shrinkage effect on top of IR treatment (4T1-luciferase tumor): no effect over IR treatment
